Literature values in US12673067B2, “Methods, agents, and devices for local neuromodulation of autonomic nerves” (Tulavi Therapeutics, Inc., priority 2016, dated 2026).
Where two headings read alike, the source gives them in different places.

Assays:
FFA1 [1] = molecular target: T1, FFA1 (Homo sapiens, UniProt O14842); conditions: Ca2+ mobilization, fluorescent indicator
GPR120 = molecular target: T2, GPR120 (Homo sapiens, UniProt Q5NUL3); conditions: Ca2+ mobilization, fluorescent indicator
T2 sequence (Q5NUL3 1-361): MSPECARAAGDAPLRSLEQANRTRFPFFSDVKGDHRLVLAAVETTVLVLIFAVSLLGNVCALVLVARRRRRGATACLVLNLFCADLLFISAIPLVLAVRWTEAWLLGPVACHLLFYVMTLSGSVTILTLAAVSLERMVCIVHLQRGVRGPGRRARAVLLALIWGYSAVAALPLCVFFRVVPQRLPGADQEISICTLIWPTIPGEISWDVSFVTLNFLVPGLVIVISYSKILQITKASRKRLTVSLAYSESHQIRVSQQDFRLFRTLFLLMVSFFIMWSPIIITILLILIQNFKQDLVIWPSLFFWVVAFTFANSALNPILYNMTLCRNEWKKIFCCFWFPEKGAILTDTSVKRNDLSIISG

stellate ganglion = conditions: dog, in vivo
FFA1 [2] = molecular target: T1, FFA1; conditions: footnote a: ERK activation (Smith 2009) or aequorin reporter (Kotarsky 2003)
PPARα = molecular target: T3, PPARα (Homo sapiens, UniProt Q07869)
T3 sequence (Q07869 1-468): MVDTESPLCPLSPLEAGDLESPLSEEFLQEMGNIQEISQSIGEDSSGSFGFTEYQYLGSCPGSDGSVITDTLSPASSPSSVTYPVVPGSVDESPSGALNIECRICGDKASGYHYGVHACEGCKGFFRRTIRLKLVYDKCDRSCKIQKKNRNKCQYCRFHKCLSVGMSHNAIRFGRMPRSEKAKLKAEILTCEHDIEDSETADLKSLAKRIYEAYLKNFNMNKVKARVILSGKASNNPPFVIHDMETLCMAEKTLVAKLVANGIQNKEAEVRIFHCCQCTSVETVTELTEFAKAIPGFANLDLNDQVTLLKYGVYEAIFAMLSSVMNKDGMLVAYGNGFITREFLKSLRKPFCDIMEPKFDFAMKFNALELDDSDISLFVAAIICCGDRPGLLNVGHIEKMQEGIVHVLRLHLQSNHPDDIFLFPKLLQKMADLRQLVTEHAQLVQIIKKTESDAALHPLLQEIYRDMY

PPARδ = molecular target: T4, PPARδ (Homo sapiens, UniProt Q03181)
T4 sequence (Q03181 1-441): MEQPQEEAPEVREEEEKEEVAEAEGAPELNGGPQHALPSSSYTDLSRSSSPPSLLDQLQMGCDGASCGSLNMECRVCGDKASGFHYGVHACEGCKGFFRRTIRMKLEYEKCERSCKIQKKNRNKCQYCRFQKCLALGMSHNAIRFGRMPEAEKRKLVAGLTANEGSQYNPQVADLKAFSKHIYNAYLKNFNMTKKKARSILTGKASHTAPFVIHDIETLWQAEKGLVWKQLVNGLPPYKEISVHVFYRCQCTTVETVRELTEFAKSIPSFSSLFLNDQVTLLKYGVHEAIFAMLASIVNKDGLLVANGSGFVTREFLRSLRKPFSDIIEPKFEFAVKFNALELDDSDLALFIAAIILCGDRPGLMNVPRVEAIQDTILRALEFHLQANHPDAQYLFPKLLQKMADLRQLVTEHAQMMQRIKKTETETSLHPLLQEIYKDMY

PPARγ = molecular target: T5, PPARγ (Homo sapiens, UniProt P37231)
T5 sequence (P37231 1-505): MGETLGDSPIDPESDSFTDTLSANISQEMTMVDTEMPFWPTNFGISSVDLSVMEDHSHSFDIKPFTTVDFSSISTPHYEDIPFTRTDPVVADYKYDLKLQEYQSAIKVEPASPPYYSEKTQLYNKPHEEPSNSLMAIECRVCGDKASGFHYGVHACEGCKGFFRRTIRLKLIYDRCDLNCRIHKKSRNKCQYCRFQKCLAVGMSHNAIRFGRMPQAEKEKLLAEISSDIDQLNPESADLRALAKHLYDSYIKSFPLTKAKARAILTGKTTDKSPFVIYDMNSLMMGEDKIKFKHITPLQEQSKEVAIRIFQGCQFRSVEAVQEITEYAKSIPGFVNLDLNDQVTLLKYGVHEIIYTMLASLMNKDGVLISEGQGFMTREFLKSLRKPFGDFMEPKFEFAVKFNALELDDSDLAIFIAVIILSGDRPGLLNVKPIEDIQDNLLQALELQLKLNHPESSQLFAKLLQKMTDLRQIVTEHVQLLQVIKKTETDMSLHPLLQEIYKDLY

[3] = test system: organic anion transporters (OAT); conditions: at 0.5-1 mM
Aquaporin 4 (AQP4) = conditions: pretreatment, mouse focal cerebral ischemia
[4] = rats
[5] = in vivo
H+K+ATPase = molecular target: T6, H+K+ATPase (Oryctolagus cuniculus, UniProt P27112); conditions: microsomal membranes from rabbit fundic mucosa; read-out: IC50, inhibition of isolated H+K+ATPase enzyme activity
T6 construct: a preparation of microsomal membranes from rabbit fundic mucosa; from tissue; host or cells: rabbit fundic mucosa, microsomal membranes
T6 sequence (P27112 whole entry): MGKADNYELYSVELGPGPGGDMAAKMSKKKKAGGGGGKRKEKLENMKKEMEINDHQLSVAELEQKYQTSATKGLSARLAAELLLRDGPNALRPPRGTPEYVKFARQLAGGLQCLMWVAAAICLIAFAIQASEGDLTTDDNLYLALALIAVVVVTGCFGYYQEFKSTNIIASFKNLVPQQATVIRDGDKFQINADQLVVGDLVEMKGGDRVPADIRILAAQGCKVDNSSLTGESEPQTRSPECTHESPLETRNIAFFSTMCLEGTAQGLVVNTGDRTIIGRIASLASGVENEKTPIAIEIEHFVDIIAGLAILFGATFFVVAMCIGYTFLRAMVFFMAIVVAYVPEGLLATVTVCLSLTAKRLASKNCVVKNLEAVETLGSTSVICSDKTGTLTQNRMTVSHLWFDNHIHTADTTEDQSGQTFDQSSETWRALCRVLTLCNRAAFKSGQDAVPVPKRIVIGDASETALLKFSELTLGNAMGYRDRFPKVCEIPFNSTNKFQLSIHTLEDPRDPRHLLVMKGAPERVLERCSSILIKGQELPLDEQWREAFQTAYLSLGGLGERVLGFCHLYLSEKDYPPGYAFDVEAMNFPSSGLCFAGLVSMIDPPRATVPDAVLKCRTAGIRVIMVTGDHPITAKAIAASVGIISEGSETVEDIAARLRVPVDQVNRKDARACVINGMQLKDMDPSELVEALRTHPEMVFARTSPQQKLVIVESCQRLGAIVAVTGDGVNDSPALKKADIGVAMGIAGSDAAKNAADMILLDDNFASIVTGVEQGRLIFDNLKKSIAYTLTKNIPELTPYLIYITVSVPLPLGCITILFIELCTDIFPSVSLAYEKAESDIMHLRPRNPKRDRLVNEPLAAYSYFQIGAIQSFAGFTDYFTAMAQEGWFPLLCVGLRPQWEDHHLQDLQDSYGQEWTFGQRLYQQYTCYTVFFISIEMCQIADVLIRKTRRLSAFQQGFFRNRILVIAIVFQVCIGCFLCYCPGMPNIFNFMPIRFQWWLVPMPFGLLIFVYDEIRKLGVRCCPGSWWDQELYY
T6 sequence (P18597 whole entry partner): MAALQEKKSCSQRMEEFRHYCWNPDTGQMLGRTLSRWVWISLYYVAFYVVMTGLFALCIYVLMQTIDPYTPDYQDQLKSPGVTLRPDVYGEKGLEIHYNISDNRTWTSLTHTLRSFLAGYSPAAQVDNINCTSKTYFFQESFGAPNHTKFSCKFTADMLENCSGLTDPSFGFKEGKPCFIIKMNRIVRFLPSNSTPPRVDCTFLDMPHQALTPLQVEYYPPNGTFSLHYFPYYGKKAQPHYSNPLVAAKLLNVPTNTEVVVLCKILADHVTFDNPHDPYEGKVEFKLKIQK

KCC2 = molecular target: T7, KCC2 (Homo sapiens, UniProt Q9H2X9)
T7 sequence (Q9H2X9 1-1139): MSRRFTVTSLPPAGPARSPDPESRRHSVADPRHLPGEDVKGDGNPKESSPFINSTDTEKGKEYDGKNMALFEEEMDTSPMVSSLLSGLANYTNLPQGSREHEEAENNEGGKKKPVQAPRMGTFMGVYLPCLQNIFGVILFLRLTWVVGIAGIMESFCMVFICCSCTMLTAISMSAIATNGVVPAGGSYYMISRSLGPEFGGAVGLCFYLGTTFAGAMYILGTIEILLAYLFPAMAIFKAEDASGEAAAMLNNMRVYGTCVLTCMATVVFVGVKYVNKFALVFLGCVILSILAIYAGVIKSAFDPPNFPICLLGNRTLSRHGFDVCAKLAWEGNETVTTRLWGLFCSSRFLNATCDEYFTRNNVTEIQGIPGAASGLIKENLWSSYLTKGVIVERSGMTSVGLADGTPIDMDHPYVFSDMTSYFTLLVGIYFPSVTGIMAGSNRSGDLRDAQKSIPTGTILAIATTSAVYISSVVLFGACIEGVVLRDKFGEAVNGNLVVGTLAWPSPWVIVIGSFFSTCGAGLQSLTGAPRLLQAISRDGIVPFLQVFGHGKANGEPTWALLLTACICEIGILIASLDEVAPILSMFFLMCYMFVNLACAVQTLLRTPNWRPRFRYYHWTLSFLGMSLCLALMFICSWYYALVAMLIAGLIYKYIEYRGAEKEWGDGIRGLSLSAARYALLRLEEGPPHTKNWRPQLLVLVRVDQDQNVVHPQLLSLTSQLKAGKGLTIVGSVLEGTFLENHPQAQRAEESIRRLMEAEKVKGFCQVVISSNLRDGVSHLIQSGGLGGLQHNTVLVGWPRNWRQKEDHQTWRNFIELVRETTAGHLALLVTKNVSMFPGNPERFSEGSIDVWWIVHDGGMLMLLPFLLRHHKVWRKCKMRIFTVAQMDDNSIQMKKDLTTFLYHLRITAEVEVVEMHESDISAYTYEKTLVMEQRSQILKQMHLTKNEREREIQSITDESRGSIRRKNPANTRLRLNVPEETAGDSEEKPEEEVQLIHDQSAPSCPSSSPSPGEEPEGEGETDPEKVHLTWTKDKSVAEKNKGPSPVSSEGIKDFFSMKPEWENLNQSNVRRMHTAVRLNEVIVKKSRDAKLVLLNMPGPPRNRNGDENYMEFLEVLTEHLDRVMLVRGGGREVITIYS

T1 sequence (O14842 whole entry): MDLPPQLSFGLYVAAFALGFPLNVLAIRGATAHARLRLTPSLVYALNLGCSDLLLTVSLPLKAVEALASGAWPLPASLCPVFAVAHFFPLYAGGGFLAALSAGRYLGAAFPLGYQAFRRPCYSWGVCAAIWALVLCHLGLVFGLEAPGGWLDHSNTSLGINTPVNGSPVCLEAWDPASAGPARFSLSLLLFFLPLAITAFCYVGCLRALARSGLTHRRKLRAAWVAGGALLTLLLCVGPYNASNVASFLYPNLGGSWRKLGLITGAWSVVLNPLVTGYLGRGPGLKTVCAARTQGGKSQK

CC/C=C\C/C=C\C/C=C\C/C=C\C/C=C\C/C=C\CCC(=O)O [DHA (C22:6), DHA]
FFA1 pEC50 (FFA1 [1]): 5.4-6.0 | GPR120 pEC50 (GPR120): 5.4

NGF: nerve growth factor injected into the stellate ganglion of dogs
QTc (stellate ganglion): shortened | QTc interval (stellate ganglion): prolonged | SCD (stellate ganglion): did not cause SCD | risk of SCD (stellate ganglion): 50%

CCCCCCCCCCCCCCCC(=O)O [Palmitic acid (C18:0), Palmitic acid]
FFA1 pEC50 (FFA1 [1]): 5.2-5.3

CN(CCOc1ccc(CC2SC(=O)NC2=O)cc1)c1ccccn1 (centres unmarked) [Rosiglitazone]
FFA1 pEC50 (FFA1 [2]): 5.0-5.6^a

O=C(O)CCc1ccc(NCc2cccc(Oc3ccccc3)c2)cc1 [GW9508]
pEC50 for PPARα (PPARα): 4.0 | pEC50 for PPARδ (PPARδ): 4.0 | FFA1 pEC50 (FFA1 [1]): 6.6-7.3 | pEC50 for PPARγ (PPARγ): 4.9

Cc1ccc(CN(Cc2ccc(-c3ccccc3S(=O)(=O)NC#N)cc2)C(=O)c2ccccc2Cl)cc1 [S0859]
inhibition of Na+-H+ exchange (NHE) (Na+-H+ exchange (NHE)): does not inhibit

O=c1c2ccc(O)c(O)c2oc2c(O)c(O)ccc12 [3,4,5,6-Tetrahydroxyxanthone]
affinity of Na/K ATPase pump inhibition (Na/K ATPase): comparable to ouabain

C=C1C[C@@]23CC[C@H]4[C@@](C)(CCC[C@@]4(C)C(=O)O[C@@H]4O[C@H](CO)[C@@H](O)[C@H](O)[C@H]4O)[C@@H]2CC[C@]1(O[C@@H]1O[C@H](CO)[C@@H](O)[C@H](O)[C@H]1O[C@@H]1O[C@H](CO)[C@@H](O)[C@H](O)[C@H]1O)C3 [Stevioside]
genotoxic effects (cultured mammalian cells): genotoxic effects | interaction with organic anion transporters (OAT) [3]: no interaction

O=C(Nc1nncs1)c1cccnc1 [TGN-020]
volume of brain edema associated with ischemic injury (Aquaporin 4 (AQP4)): significantly reduced

N=C(N)NC(=O)c1cnn(-c2cccc3ncccc23)c1C1CC1 [Zoniporide]
swelling of human platelets (human platelets): inhibits | cardiac contractile dysfunction [4]: attenuates | peripheral sensory axonopathy [5]: causes peripheral sensory axonopathy

CCCCCCCC/C=C\CCCCCCCC(=O)O [Oleic acid (C18:1), Oleic acid]
FFA1 pEC50 (FFA1 [1]): 4.4-5.7

Cc1nc2c(OCc3ccccc3)nccn2c1N [SCH 32651]
IC50 (H+K+ATPase): 200 µM

O=C(O)CCCc1ccc(OCCN(c2ccccc2)c2ccccn2)cc1 [NCG21 (Cpd 12)]
PPARα agonist activity (PPARα; at 100 μM): Lacks PPARα, δ, and γ | PPARδ agonist activity (PPARδ; at 100 μM): Lacks PPARα, δ, and γ | FFA1 pEC50 (FFA1 [1]): 4.7 | GPR120 pEC50 (GPR120): 5.9 | PPARγ agonist activity (PPARγ; at 100 μM): Lacks PPARα, δ, and γ

Cc1nc2c(OCc3ccccc3)cccn2c1CC#N [SCH-28080]
IC50 (H+K+ATPase): 2.5 µM

Cc1csc(NC(=O)CSc2ccc(-c3ccccc3)nn2)n1 [VU024055 1]
selectivity for KCC2 over NKCCI (KCC2): selective
